Measurements from ChEMBL document CHEMBL1132301, “Carbonic anhydrase inhibitors. Synthesis of water-soluble, topically effective, intraocular pressure-lowering aromatic/heterocyclic sulfonamides containing cationic or anionic moieties: is the tail more important than the ring?” (J Med Chem, 1999).
Values after ≈ are worked out from the molar mass of the structure shown.

Key:
[1] = molecular target: T1, Carbonic anhydrase 4 (Bos taurus, UniProt Q95323)
T1 sequence (Q95323 whole entry): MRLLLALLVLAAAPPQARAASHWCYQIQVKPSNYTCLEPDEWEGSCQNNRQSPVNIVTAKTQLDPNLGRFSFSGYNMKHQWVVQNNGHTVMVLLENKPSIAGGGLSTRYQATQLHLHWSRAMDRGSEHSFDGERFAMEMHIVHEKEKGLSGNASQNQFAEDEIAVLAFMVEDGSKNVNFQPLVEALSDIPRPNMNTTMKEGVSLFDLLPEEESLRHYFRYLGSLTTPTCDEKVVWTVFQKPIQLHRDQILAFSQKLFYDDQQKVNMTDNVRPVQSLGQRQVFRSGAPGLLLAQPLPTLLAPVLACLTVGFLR
Description: Inhibitory activity against bovine lung microsomes carbonic anhydrase isozyme IV (bCA IV).

[2] = molecular target: T2, Carbonic anhydrase 1 (Homo sapiens, UniProt P00915)
Description: Inhibitory activity against human cloned carbonic anhydrase isozyme I (hCA I, cytosolic form).

[3] = molecular target: T3, Carbonic anhydrase 2 (Homo sapiens, UniProt P00918)
Description: Inhibitory activity against human recombinant carbonic anhydrase II

[4] = organism: Oryctolagus cuniculus; format: functional, Eye
Description: In vivo fall of IOP of normotensive rabbits after treatment with 1 drop(50 microL) of 2% solution of CA inhibitor with pH value 5.5 into the eye at 0 min

[5] = molecular target: T2, Carbonic anhydrase 1; remark: listed apart in the source
Description: Inhibition of human cloned Carbonic anhydrase I (hCA I,cytosolic form)

[6] = molecular target: T3, Carbonic anhydrase 2; remark: listed apart in the source
Description: Inhibitory activity against human cloned Carbonic anhydrase II (hCA II, cytosolic form).

[7] = organism: Oryctolagus cuniculus
Description: Compound was tested in vitro for corneal permeability of compound across the intact cornea obtained from rabbit

[8] = octanol/water
Description: Partition coefficient (logD) (chloroform/buffer)

[9] = Compound was tested for solubility in pH buffer, at 25 degree C.; format: ADME
[10] = organism: Oryctolagus cuniculus; remark: listed apart in the source
Description: Compound was tested in vitro for corneal permeability of compound across the Denuded epithelial cornea obtained from rabbit

[11] = organism: Oryctolagus cuniculus; format: functional, Eye; remark: listed apart in the source
Description: In vivo fall of IOP of normotensive rabbits after treatment with 1 drop(50 microL) of 2% solution of CA inhibitor with pH value 5.5 into the eye at 60 min

[12] = organism: Oryctolagus cuniculus; format: functional, Eye; remark: listed apart in the source
Description: In vivo fall of IOP of normotensive rabbits after treatment with 1 drop(50 microL) of 2% solution of CA inhibitor with pH value 5.5 into the eye at 90 min.

[13] = organism: Oryctolagus cuniculus; format: functional, Eye; remark: listed apart in the source
Description: In vivo fall of IOP of normotensive rabbits after treatment with 1 drop(50 microL) of 2% solution of CA inhibitor with pH value 5.5 into the eye at 30 min

[14] = organism: Oryctolagus cuniculus; format: functional, Eye; remark: listed apart in the source
Description: Drug concentration was tested in ocular fluids and tissues after 1 hour following the corneal application in normotensive albino rabbits on cilirary process

[15] = organism: Oryctolagus cuniculus; format: functional, Eye; remark: listed apart in the source
Description: Drug concentration was tested in ocular fluids and tissues after 2 hour following the corneal application in normotensive albino rabbits on cornea

[16] = organism: Oryctolagus cuniculus; format: functional, Eye; remark: listed apart in the source
Description: Drug concentration was tested in ocular fluids and tissues after 1 hour following the corneal application in normotensive albino rabbits on aqueous humor

[17] = organism: Oryctolagus cuniculus; format: functional, Eye; remark: listed apart in the source
Description: Drug concentration was tested in ocular fluids and tissues after 2 hour following the corneal application in normotensive albino rabbits on aqueous humor

[18] = organism: Oryctolagus cuniculus; format: functional, Eye; remark: listed apart in the source
Description: Drug concentration was tested in ocular fluids and tissues after 2 hour following the corneal application in normotensive albino rabbits on cilirary process

[19] = organism: Oryctolagus cuniculus; format: functional, Eye; remark: listed apart in the source
Description: Drug concentration was tested in ocular fluids and tissues after 1 hour following the corneal application in normotensive albino rabbits on cornea

[20] = organism: Oryctolagus cuniculus; format: functional, Eye; remark: listed apart in the source
Description: In vivo fall of IOP of normotensive rabbits after treatment with 1 drop(50 microL) of 2% solution of CA inhibitor with pH value 7.4 into the eye at 60 min

[21] = organism: Oryctolagus cuniculus; format: functional, Eye; remark: listed apart in the source
Description: In vivo fall of IOP of normotensive rabbits after treatment with 1 drop(50 microL) of 2% solution of CA inhibitor with pH value 8.4 into the eye at 90 min.

[22] = organism: Oryctolagus cuniculus; format: functional, Eye; remark: listed apart in the source
Description: In vivo fall of IOP of normotensive rabbits after treatment with 1 drop(50 microL) of 2% solution of CA inhibitor with pH value 7.4 into the eye at 0 min

[23] = organism: Oryctolagus cuniculus; format: functional, Eye; remark: listed apart in the source
Description: In vivo fall of IOP of Glaucomatous rabbits after treatment with 1 drop(50 microL) of 2% solution of CA inhibitor with pH value 7.4 into the eye at 90 min.

[24] = organism: Oryctolagus cuniculus; format: functional, Eye; remark: listed apart in the source
Description: In vivo fall of IOP of normotensive rabbits after treatment with 1 drop(50 microL) of 2% solution of CA inhibitor with pH value 8.4 into the eye at 60 min

[25] = organism: Oryctolagus cuniculus; format: functional, Eye; remark: listed apart in the source
Description: In vivo fall of IOP of normotensive rabbits after treatment with 1 drop(50 microL) of 2% solution of CA inhibitor with pH value 7.4 into the eye at 30 min

[26] = organism: Oryctolagus cuniculus; format: functional, Eye; remark: listed apart in the source
Description: In vivo fall of IOP of Glaucomatous rabbits after treatment with 1 drop(50 microL) of 2% solution of CA inhibitor with pH value 7.4 into the eye at 60 min

[27] = organism: Oryctolagus cuniculus; format: functional, Eye; remark: listed apart in the source
Description: In vivo fall of IOP of normotensive rabbits after treatment with 1 drop(50 microL) of 2% solution of CA inhibitor with pH value 8.4 into the eye at 0 min

[28] = organism: Oryctolagus cuniculus; format: functional, Eye; remark: listed apart in the source
Description: In vivo fall of IOP of Glaucomatous rabbits after treatment with 1 drop(50 microL) of 2% solution of CA inhibitor with pH value 7.4 into the eye at 0 min

[29] = organism: Oryctolagus cuniculus; format: functional, Eye; remark: listed apart in the source
Description: In vivo fall of IOP of normotensive rabbits after treatment with 1 drop(50 microL) of 2% solution of CA inhibitor with pH value 8.4 into the eye at 30 min

[30] = organism: Oryctolagus cuniculus; format: functional, Eye; remark: listed apart in the source
Description: In vivo fall of IOP of Glaucomatous rabbits after treatment with 1 drop(50 microL) of 2% solution of CA inhibitor with pH value 7.4 into the eye at 30 min

[31] = organism: Oryctolagus cuniculus; format: functional, Eye; remark: listed apart in the source
Description: In vivo fall of IOP of normotensive rabbits after treatment with 1 drop(50 microL) of 2% solution of CA inhibitor with pH value 7.4 into the eye at 90 min.

T2 sequence (P00915 whole entry): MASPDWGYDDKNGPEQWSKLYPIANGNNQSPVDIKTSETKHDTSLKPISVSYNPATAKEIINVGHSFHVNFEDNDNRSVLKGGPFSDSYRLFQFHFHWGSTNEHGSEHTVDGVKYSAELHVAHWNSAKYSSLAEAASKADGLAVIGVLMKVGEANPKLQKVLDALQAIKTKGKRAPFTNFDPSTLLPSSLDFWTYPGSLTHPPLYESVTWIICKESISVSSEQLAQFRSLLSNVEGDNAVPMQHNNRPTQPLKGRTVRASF

| Compound | Ki [1] [nM] | Ki [2] [nM] | Ki [3] [nM] | other results |
| --- | --- | --- | --- | --- |
| NS(=O)(=O)c1ccc(CCN2C(=O)c3cccnc3C2=O)cc1 | 54 | 845 | 9 | – |
| NS(=O)(=O)c1nc2ccc(ONC(=O)c3cccc(C(=O)O)n3)cc2s1 | 13 | 16 | 2 | – |
| NS(=O)(=O)c1nnc(NC(=O)c2cccc(C(=O)[O-])n2)s1.[Na+] | – | – | – | Delta IOP [4]: 0 mmHg |
| NS(=O)(=O)c1nc2ccc(N3C(=O)c4cccnc4C3=O)cc2s1 | 9 | – | – | Ki [5]: 12 nM; Ki [6]: 4 nM |
| NS(=O)(=O)c1nnc(NC(=O)c2cccc(C(=O)O)n2)s1 | 21 | 36 | 6 | Kin [7]: 1100 h⁻¹; logD [8]: 0.085; solubility [9]: 83 mM (≈ 27.3 mg/mL); Kin [10]: 6400 h⁻¹ |
| CCOc1ccc2nc(S(N)(=O)=O)sc2c1 [ETHOXZOLAMIDE] | – | – | – | solubility [9]: 0.04 mM (≈ 0.0103 mg/mL) |
| NS(=O)(=O)c1ccc(NN2C(=O)c3cccnc3C2=O)cc1 | 300 | 21500 | 275 | – |
| NS(=O)(=O)c1cc(S(N)(=O)=O)c(N2C(=O)c3cccnc3C2=O)c(Cl)c1Cl | 69 | – | – | Ki [5]: 500 nM; Ki [6]: 12 nM |
| NS(=O)(=O)c1nnc(NC(=O)CCN2C(=O)c3cccnc3C2=O)s1 | – | – | – | Kin [7]: 3800 h⁻¹; logD [8]: 0.449; solubility [9]: 81 mM (≈ 31 mg/mL); Ki [5]: 18 nM; Kin [10]: 9700 h⁻¹; Ki [6]: 3 nM |
| NS(=O)(=O)c1cc(S(N)(=O)=O)c(NC(=O)c2cccc(C(=O)O)n2)c(Cl)c1Cl | 55 | 450 | 10 | – |
| Cl.NS(=O)(=O)c1nc2ccc(OCCONC(=O)c3cccc(C(=O)O)n3)cc2s1 | – | – | – | Delta IOP [4]: 0 mmHg; Delta IOP [11]: 7.2 mmHg; Delta IOP [12]: 9 mmHg; Delta IOP [13]: 4 mmHg |
| Cn1nc(S(N)(=O)=O)s/c1=N\C(=O)c1cccc(C(=O)O)n1 | 19 | 35 | 7 | Kin [7]: 3600 h⁻¹; logD [8]: 0.428; solubility [9]: 79 mM (≈ 27.1 mg/mL); Kin [10]: 8500 h⁻¹ |
| Cl.NS(=O)(=O)c1ccc(NC(=O)c2cccc(C(=O)O)n2)c(F)c1 | – | – | – | Delta IOP [4]: 0 mmHg; Delta IOP [11]: 4.2 mmHg; Delta IOP [12]: 3.9 mmHg; Delta IOP [13]: 2.5 mmHg |
| Cl.NS(=O)(=O)c1nnc(N2C(=O)c3cccnc3C2=O)s1 | – | – | – | Delta IOP [4]: 0 mmHg; Delta IOP [11]: 9 mmHg; Delta IOP [12]: 8.1 mmHg; Delta IOP [13]: 5.4 mmHg |
| NS(=O)(=O)c1nnc(NC(=O)CCNC(=O)c2cccc(C(=O)O)n2)s1 | 9 | 19 | 2 | – |
| NS(=O)(=O)c1ccc(CONC(=O)c2cccc(C(=O)O)n2)cc1 | 120 | 2050 | 20 | – |

| Compound | Ki [1] [nM] | Ki [2] [nM] | Ki [3] [nM] | other results |
| --- | --- | --- | --- | --- |
| Cl.NS(=O)(=O)c1nnc(NC(=O)CCN2C(=O)c3cccnc3C2=O)s1 | – | – | – | Drug concentration [14]: 50 µM; Drug concentration [15]: 45 µM; Drug concentration [16]: 280 µM; Drug concentration [17]: 42 µM; Drug concentration [18]: 12 µM; Drug concentration [19]: 158 µM |
| NCCC(=O)Nc1nnc(S(N)(=O)=O)s1 | 125 | – | – | – |
| NS(=O)(=O)c1ccc(CCNC(=O)c2cccc(C(=O)O)n2)cc1 | – | – | 7 | – |
| CCN(C(=O)c1cccnc1C(=O)O)C1CC(C)S(=O)(=O)c2sc(S(N)(=O)=O)cc21.CCN(C(=O)c1ncccc1C(=O)O)C1CC(C)S(=O)(=O)c2sc(S(N)(=O)=O)cc21 (stereo unspecified) | 18 | 450 | – | – |
| NS(=O)(=O)c1nc2ccc(NC(=O)c3cccc(C(=O)O)n3)cc2s1 | 11 | 18 | 3 | – |
| NS(=O)(=O)c1ccc(NC(=O)c2cccc(C(=O)O)n2)c(F)c1 | – | – | 8 | Kin [7]: 1600 h⁻¹; logD [8]: 0.117; solubility [9]: 66 mM (≈ 22.4 mg/mL); Kin [10]: 7000 h⁻¹ |
| Nc1ccc(S(N)(=O)=O)cc1I | 125 | 6000 | – | – |
| NS(=O)(=O)c1cc(S(N)(=O)=O)c(N2C(=O)c3cccnc3C2=O)cc1Cl | 60 | – | – | Ki [5]: 600 nM; Ki [6]: 9 nM |
| NS(=O)(=O)c1ccc(CNC(=O)c2cccc(C(=O)O)n2)cc1 | – | – | 36 | – |
| CCN(C(=O)c1cccc(C(=O)[O-])n1)C1CC(C)S(=O)(=O)c2sc(S(N)(=O)=O)cc21.[Na+] (stereo unspecified) | – | – | – | Drug concentration [14]: 47 µM; Drug concentration [15]: 44 µM; Drug concentration [16]: 278 µM; Delta IOP [20]: 7.2 mmHg; Delta IOP [21]: 9.9 mmHg; Delta IOP [22]: 0 mmHg; Delta IOP [23]: 11.8 mmHg; Delta IOP [24]: 7.7 mmHg; Delta IOP [25]: 3.5 mmHg; Drug concentration [17]: 39 µM; Delta IOP [26]: 10.1 mmHg; Drug concentration [18]: 10 µM; Delta IOP [27]: 0 mmHg; Delta IOP [28]: 0 mmHg; Delta IOP [29]: 3.6 mmHg; Drug concentration [19]: 113 µM; Delta IOP [30]: 6.5 mmHg; Delta IOP [31]: 9.8 mmHg |
| NS(=O)(=O)c1ccc(NNC(=O)c2cccc(C(=O)O)n2)cc1 | – | 20600 | 270 | – |
| NS(=O)(=O)c1nnc(N2C(=O)c3cccnc3C2=O)s1 | 18 | – | – | Kin [7]: 2500 h⁻¹; logD [8]: 0.315; solubility [9]: 72 mM (≈ 22.4 mg/mL); Ki [5]: 39 nM; Kin [10]: 7600 h⁻¹; Ki [6]: 8 nM |
| NS(=O)(=O)c1cc(S(N)(=O)=O)c(NC(=O)c2cccc(C(=O)O)n2)cc1Cl | – | – | 9 | – |
| NS(=O)(=O)c1nc2ccc(OCCONC(=O)c3cccc(C(=O)O)n3)cc2s1 | 10 | 15 | 3 | – |
| CCN(C(=O)c1cccnc1C(=O)O)C1CC(C)S(=O)(=O)c2sc(S(N)(=O)=O)cc21.CCN(C(=O)c1ncccc1C(=O)O)C1CC(C)S(=O)(=O)c2sc(S(N)(=O)=O)cc21.Cl (stereo unspecified) | – | – | – | Delta IOP [4]: 0 mmHg; Delta IOP [11]: 5.2 mmHg; Delta IOP [12]: 3.5 mmHg; Delta IOP [13]: 2.4 mmHg |
| Cl.NS(=O)(=O)c1ccc(CCN2C(=O)c3cccnc3C2=O)cc1 | – | – | – | Delta IOP [4]: 0 mmHg; Delta IOP [11]: 4.8 mmHg; Delta IOP [12]: 4.2 mmHg; Delta IOP [13]: 2.7 mmHg |

The next lines start with results.

| Ki [1] [nM] | Ki [2] [nM] | Compound | Ki [3] [nM] | other results |
| --- | --- | --- | --- | --- |
| 310 | 21000 | NS(=O)(=O)c1ccccc1N1C(=O)c2cccnc2C1=O | 280 | – |
| 285 | – | NS(=O)(=O)c1cccc(NC(=O)c2cccc(C(=O)O)n2)c1 | – | – |
| 105 | 2000 | NS(=O)(=O)c1ccc(CCONC(=O)c2cccc(C(=O)O)n2)cc1 | 15 | – |
| 66 | – | NS(=O)(=O)c1ccc(NC(=O)c2cccc(C(=O)O)n2)c(Cl)c1 | – | Ki [5]: 600 nM |
| 79 | 620 | NS(=O)(=O)c1ccc(N2C(=O)c3cccnc3C2=O)c(Cl)c1 | 44 | – |
| 69 | 575 | NS(=O)(=O)c1ccc(NC(=O)c2cccc(C(=O)O)n2)c(Br)c1 | – | – |
| – | 600 | NS(=O)(=O)c1ccc(NC(=O)c2cccc(C(=O)O)n2)c(I)c1 | – | – |
| 75 | 605 | NS(=O)(=O)c1ccc(N2C(=O)c3cccnc3C2=O)c(Br)c1 | 31 | – |
| 170 | – | NS(=O)(=O)c1ccc(N2C(=O)c3cccnc3C2=O)cc1 | – | Ki [5]: 15500 nM; Ki [6]: 132 nM |
| 15 | […] | NS(=O)(=O)c1nc2ccc(OCCO)cc2s1 | – | – |
| 66 | – | Nc1ccc(S(N)(=O)=O)cc1Br | – | – |
| 450 | – | NS(=O)(=O)c1ccc(CCO)cc1 | – | – |
| 300 | – | NS(=O)(=O)c1ccccc1NC(=O)c1cccc(C(=O)O)n1 | – | – |
| 175 | 6100 | Nc1c(S(N)(=O)=O)cc(S(N)(=O)=O)c(Cl)c1Cl | – | – |
| 70 | 610 | NS(=O)(=O)c1ccc(N2C(=O)c3cccnc3C2=O)c(I)c1 | 33 | – |
| 305 | – | NS(=O)(=O)c1cccc(N2C(=O)c3cccnc3C2=O)c1 | – | Ki [5]: 20000 nM; Ki [6]: 250 nM |
| 1310 | – | Nc1ccccc1S(N)(=O)=O | – | – |
| 46 | 540 | NS(=O)(=O)c1ccc(N2C(=O)c3cccnc3C2=O)c(F)c1 | 10 | – |
| 150 | 15000 | NS(=O)(=O)c1ccc(NC(=O)c2cccc(C(=O)O)n2)cc1 | – | – |
| 180 | – | Nc1ccc(S(N)(=O)=O)cc1F | – | – |
| 19 | – | Nc1ccc2nc(S(N)(=O)=O)sc2c1 | – | Ki [5]: 70 nM |
| 79 | – | NS(=O)(=O)c1ccc(CN2C(=O)c3cccnc3C2=O)cc1 | 42 | – |
